What was measured:
Type in all cases: in vivo
[1] = tested on: giant foxtail (Setaria faberii); assay: Test A postemergence; details: Setaria faberi, post-emergence, 240 h; for pest or weed control at 125 g/ha: 125 g ai/ha, postemergence, visual injury rating after approximately 10 d, read-out: Foxtail, Giant plant response rating (0 to 100 scale, 0 no effect, 100 complete control); for pest or weed control at 31 g/ha: Postemergence, 31 g ai/ha, visual injury after approx. 10 d, 0 to 100 scale, 0 no effect, 100 complete control, read-out: Plant response rating, Foxtail, Giant
Summary of the method: (§1)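 Seeded soil received test chemicals as a preemergence directed spray, and seedlings at one to two leaves, 2–10 cm tall, received them postemergence, in a non-phytotoxic, surfactant-containing solvent mixture. Pots were held in a greenhouse for approximately 10 d, then rated for injury from 0, no effect, to 100, complete control.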

[2] = tested on: ryegrass, Italian (Italian ryegrass, Lolium multiflorum); assay: Test A postemergence; details: Lolium multiflorum, post-emergence, 240 h; for pest or weed control at 125 g/ha: 125 g ai/ha, postemergence, visual injury rating after approximately 10 d, read-out: Ryegrass, Italian plant response rating (0 to 100 scale, 0 no effect, 100 complete control); for pest or weed control at 31 g/ha: Postemergence, 31 g ai/ha, visual injury after approx. 10 d, 0 to 100 scale, 0 no effect, 100 complete control, read-out: Plant response rating, Ryegrass, Italian
Summary of the method: as §1

[3] = tested on: pigweed (Amaranthus retroflexus); assay: Test A postemergence; details: Amaranthus retroflexus, post-emergence, 240 h; for pest or weed control at 125 g/ha: 125 g ai/ha, postemergence, visual injury rating after approximately 10 d, read-out: Pigweed plant response rating (0 to 100 scale, 0 no effect, 100 complete control); for pest or weed control at 31 g/ha: Postemergence, 31 g ai/ha, visual injury after approx. 10 d, 0 to 100 scale, 0 no effect, 100 complete control, read-out: Plant response rating, Pigweed
Summary of the method: as §1

[4] = tested on: Kochia (Kochia scoparia); assay: Test A postemergence; details: Bassia scoparia, post-emergence, 240 h; for pest or weed control at 125 g/ha: 125 g ai/ha, postemergence, visual injury rating after approximately 10 d, read-out: Kochia plant response rating (0 to 100 scale, 0 no effect, 100 complete control); for pest or weed control at 31 g/ha: Postemergence, 31 g ai/ha, visual injury after approx. 10 d, 0 to 100 scale, 0 no effect, 100 complete control, read-out: Plant response rating, Kochia
Summary of the method: as §1

[5] = tested on: barnyardgrass (Echinochloa crus-galli); assay: Test A preemergence; details: Echinochloa crus-galli, pre-emergence, 240 h, read-out: Plant response rating, Barnyardgrass; for pest or weed control at 125 g/ha: 125 g ai/ha, preemergence, visual rating after approx. 10 d, 0 to 100 scale where 0 is no effect and 100 is complete control; for pest or weed control at 31 g/ha: Preemergence, 31 g ai/ha, 0 to 100 scale (0 no effect, 100 complete control)
Summary of the method: as §1

[6] = tested on: giant foxtail (Setaria faberii); assay: Test A preemergence; details: Setaria faberi, pre-emergence, 240 h, read-out: Plant response rating, Foxtail, Giant; for pest or weed control at 125 g/ha: 125 g ai/ha, preemergence, visual rating after approx. 10 d, 0 to 100 scale where 0 is no effect and 100 is complete control; for pest or weed control at 31 g/ha: Preemergence, 31 g ai/ha, 0 to 100 scale (0 no effect, 100 complete control)
Summary of the method: as §1

[7] = tested on: ryegrass, Italian (Italian ryegrass, Lolium multiflorum); assay: Test A preemergence; details: Lolium multiflorum, pre-emergence, 240 h, read-out: Plant response rating, Ryegrass, Italian; for pest or weed control at 125 g/ha: 125 g ai/ha, preemergence, visual rating after approx. 10 d, 0 to 100 scale where 0 is no effect and 100 is complete control; for pest or weed control at 31 g/ha: Preemergence, 31 g ai/ha, 0 to 100 scale (0 no effect, 100 complete control)
Summary of the method: as §1

[8] = tested on: pigweed (Amaranthus retroflexus); assay: Test A preemergence; details: Amaranthus retroflexus, pre-emergence, 240 h, read-out: Plant response rating, Pigweed; for pest or weed control at 125 g/ha: 125 g ai/ha, preemergence, visual rating after approx. 10 d, 0 to 100 scale where 0 is no effect and 100 is complete control; for pest or weed control at 31 g/ha: Preemergence, 31 g ai/ha, 0 to 100 scale (0 no effect, 100 complete control)
[9] = tested on: Kochia (Kochia scoparia); assay: Test A preemergence; details: Bassia scoparia, pre-emergence, 240 h, read-out: Plant response rating, Kochia; for pest or weed control at 125 g/ha: 125 g ai/ha, preemergence, visual rating after approx. 10 d, 0 to 100 scale where 0 is no effect and 100 is complete control; for pest or weed control at 31 g/ha: Preemergence, 31 g ai/ha, 0 to 100 scale (0 no effect, 100 complete control)
Summary of the method: as §1

[10] = tested on: ragweed (common ragweed, Ambrosia elatior); assay: Test A preemergence; details: Ambrosia artemisiifolia, pre-emergence, 240 h, read-out: Plant response rating, Ragweed; for pest or weed control at 125 g/ha: 125 g ai/ha, preemergence, visual rating after approx. 10 d, 0 to 100 scale where 0 is no effect and 100 is complete control; for pest or weed control at 31 g/ha: Preemergence, 31 g ai/ha, 0 to 100 scale (0 no effect, 100 complete control)
Summary of the method: as §1

[11] = tested on: ducksalad (Heteranthera limosa); assay: Test B flooded paddy test; details: Heteranthera limosa, Flood, 250 g ai/ha; scale of 0 to 100 where 0 is no effect and 100 is complete control; read-out: Ducksalad plant response rating
Summary of the method: (§2)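 Plants at 2-leaf stage flooded to 3 cm above soil, with compounds applied directly to paddy water and that depth maintained. Plants kept in greenhouse 13–15 d. Visual rating versus controls on a 0 (no effect) to 100 (complete control) scale.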

[12] = tested on: barnyardgrass (Echinochloa crus-galli); assay: Test B flooded paddy test; details: Echinochloa crus-galli, Flood, 250 g ai/ha; scale of 0 to 100 where 0 is no effect and 100 is complete control; read-out: Barnyardgrass plant response rating
Summary of the method: as §2

[13] = tested on: sedge, umbrella (small-flower umbrella sedge, Cyperus difformis); assay: Test B flooded paddy test; details: Cyperus difformis, Flood, 250 g ai/ha; scale of 0 to 100 where 0 is no effect and 100 is complete control; read-out: Sedge, Umbrella plant response rating
Summary of the method: as §2

[14] = tested on: rice (Oryra sativa); assay: Test B flooded paddy test; details: Oryza sativa, Flood, 250 g ai/ha; scale of 0 to 100 where 0 is no effect and 100 is complete control; read-out: Rice plant response rating
Summary of the method: as §2

SMILES | pest or weed control at 125 g/ha [1] [%] | pest or weed control at 31 g/ha [1] [%] | pest or weed control at 125 g/ha [2] [%] | pest or weed control at 31 g/ha [2] [%] | pest or weed control at 125 g/ha [3] [%] | pest or weed control at 31 g/ha [3] [%] | pest or weed control at 125 g/ha [4] [%] | pest or weed control at 31 g/ha [4] [%] | pest or weed control at 125 g/ha [5] [%] | pest or weed control at 31 g/ha [5] [%] | pest or weed control at 125 g/ha [6] [%] | pest or weed control at 31 g/ha [6] [%] | pest or weed control at 125 g/ha [7] [%] | pest or weed control at 31 g/ha [7] [%] | pest or weed control at 125 g/ha [8] [%] | pest or weed control at 31 g/ha [8] [%] | pest or weed control at 125 g/ha [9] [%] | pest or weed control at 31 g/ha [9] [%] | pest or weed control at 125 g/ha [10] [%] | pest or weed control at 31 g/ha [10] [%] | other results
CSc1ccccc1NC(=O)[C@H]1C(=O)N(C)CC[C@@H]1c1cccc(OC(F)(F)F)c1 [Compound 809] | 0 | 0 | 0 | 0 | 0 | 0 | 0 | 0 | 90 | 90 | 20 | 0 | 0 | 0 | 0 | 0 | 0 | 0 | 0 | 0 | pest or weed control at 250 g/ha [11]: 0%; pest or weed control at 250 g/ha [12]: 0%; pest or weed control at 250 g/ha [13]: 0%; pest or weed control at 250 g/ha [14]: 0%
CN1CC[C@H](c2ccc3c(c2)OC(F)(F)O3)[C@@H](C(=O)Nc2ccccc2C(F)(F)F)C1=O [Compound 811] | 60 | 0 | 0 | 0 | 0 | 0 | 0 | 0 | 40 | 0 | 40 | 0 | 0 | 0 | 0 | 0 | 0 | 0 | 0 | 0 | pest or weed control at 250 g/ha [11]: 40%; pest or weed control at 250 g/ha [12]: 20%; pest or weed control at 250 g/ha [13]: 40%; pest or weed control at 250 g/ha [14]: 0%
CN1CC[C@H](c2ccc3c(c2)OC(F)(F)O3)[C@@H](C(=O)Nc2cccc(F)c2F)C1=O [Compound 812] | 90 | 70 | 30 | 0 | 0 | 0 | 20 | 0 | 90 | 70 | 90 | 80 | 20 | 0 | 0 | 0 | 0 | 0 | 0 | 0 | pest or weed control at 250 g/ha [11]: 90%; pest or weed control at 250 g/ha [12]: 85%; pest or weed control at 250 g/ha [13]: 0%; pest or weed control at 250 g/ha [14]: 0%
CN1CC[C@H](c2ccc3c(c2)OC(F)(F)O3)[C@@H](C(=O)Nc2ccc(F)c(F)c2F)C1=O [Compound 813] | 80 | 70 | 20 | 0 | 0 | 0 | 0 | 0 | 80 | 20 | 90 | 70 | 20 | 0 | 0 | 0 | 0 | 0 | 0 | 0 | pest or weed control at 250 g/ha [11]: 100%; pest or weed control at 250 g/ha [12]: 70%; pest or weed control at 250 g/ha [13]: 0%; pest or weed control at 250 g/ha [14]: 20%
